Source: PMC5772648, “Targeted NUDT5 inhibitors block hormone signaling in breast cancer cells” (Nature Communications, 2018)

Experiments:
[1] = tested on: histone H1 displacement in T47D cells; experiment: histone H1 displacement by chromatin immunoprecipitation after R5020; format: cell-based; conditions: 30 min R5020
Description: (§1) For hormone and inhibitor treatments, normal T47D^WT cells or cells containing a single copy of luciferase under the control of the mouse mammary tumor virus (MMTV) promoter (T47D^M) were used[23]. Prior to hormone induction, cells were grown in phenol red-free RPMI medium supplemented with 10% dextran-coated charcoal-treated FBS (DCC/FBS). After 16 h in serum-free conditions, cells were pre-incubated with DMSO (vehicle) or NUDT5 inhibitor for 2 h at the indicated dose before addition of R5020 (10 nM) or vehicle (ethanol, EtOH) for the allotted time.
ChIP assays were performed using a histone H1-specific antibody, AE4 (Abcam)[54]. 1 × 10^7 T47D^M cells (plated and treated with hormone and/or inhibitor, as described above) were cross-linked for 10 min with 1% formaldehyde. Lysates were sonicated (Biorupter sonicator, Diagenode) resulting in DNA fragments with a size range of 200-300 bp. […] The resultant eluted DNA was quantified by Qubit 3.0 Fluorometer (Life Technologies) and qPCR (LightCycler FastStart DNA Master SYBR Green I, Roche). The fold enrichment of target sequences in the immunoprecipitated (IP) compared to input (I) fractions were calculated using the comparative Ct method (2^Ct(IP)−Ct(I)). […]

NUDT5 in HL-60 cells = target: T1, NUDT5 in HL-60 cells (Homo sapiens, UniProt Q9UKK9); experiment: isothermal dose-response fingerprint CETSA (ITDRFCETSA); format: cell-based; conditions: 20 to 0.06 µM
T1 construct: endogenous in cells; host or cells: HL-60
Description: Treatments, heating and lysis procedures for ITDRFCETSA were performed identically to those for CETSA experiments, except NUDT5 inhibitors were added to cells at serial dilutions from 20 to 0.06 µM. Curves were fit by sigmoidal dose-response (variable slope) to derive EC50 values in GraphPad Prism 7.

[2] = tested on: nuclear ATP production in T47D^WT cells; experiment: nuclear ATP visualization by bioluminescence (Nuc-luc reporter) after R5020; format: cell-based; conditions: 10 nM R5020
Description: as §1
T47D^WT cells were seeded in RPMI in black-walled 96-well plates and transfected using Lipofectamine 2000® (Invitrogen, manufacturer’s instructions) with the nuclear-targeted luciferase constructs (Nuc-luc FRTTO[53]) at a final concentration of 50 ng DNA/well for 48 h. 16 h prior to hormone (R5020, 10 nM) exposure, cells were synchronized by serum starvation. Bioluminescence was activated by addition of 100 µl D-luciferin (1 mg/mL water, Sigma) and ATP was quantified using an IVIS system (Xenogen Corp).

[3] = target: T2, NUDT5 in HL-60 cell lysates (Homo sapiens, UniProt Q9UKK9); experiment: cell lysate CETSA (HT-CETSA); format: binding; conditions: 20 µM, 83 °C
T2 construct: endogenous in cells; host or cells: HL-60
Description: Target engagement in cells was determined by the cellular thermal shift assay (CETSA)[29]. Briefly, cell lysate thermal shift assays were performed with 1 × 10^6 HL-60 cells per temperature/condition. Cells were collected and washed once with PBS and resuspended in TBS with protease inhibitor cocktail (Mini cOmplete, EDTA-free, Roche) at 60 µL/1 × 10^6 cells. The cells were then aliquoted and lysed by freeze-thawing three times with 3-min incubations (3x, 3 min.+3 min.) using an ethanol/dry ice bath and water bath at 37 °C. The lysates were then centrifuged at 20,000×g for 20 min at 4 °C to remove cellular debris. Supernatants were then transferred to PCR strip tubes and treated with 0.5 µL DMSO (0.8% v/v final) or 20 µM inhibitor for 20 min at room temperature. Lysates with compounds were heated at the indicated temperature in a Veriti Thermal Cycler (Applied Biosystems) for 3 min, then cooled for another 3 min at room temperature. They were then centrifuged at 20 000 × g for 20 min at 4 °C to pellet protein aggregates and 45 µL was removed and prepared for western blotting analysis.

[4] = target: T3, NUDT5 in intact HL-60 cells (Homo sapiens, UniProt Q9UKK9); experiment: intact cell CETSA; format: cell-based; conditions: 20 µM, 83 °C
T3 construct: endogenous in cells; host or cells: HL-60
Description: For CETSA experiments with cells treated in culture, 1 × 10^6 HL-60 were treated with DMSO (0.1 % v/v final) or 20 µM compound for 3 h at 37 °C and 5% CO2 in a humidified incubator. T47D^WT cells were treated instead with 80 µM TH1659, 15 µM TH5423/5424 and 1.5 µM TH5427. The cells were harvested, washed twice with PBS and resuspended in TBS with protease inhibitors, as above. Heating was identical as before, except that immediately following heating, the cell suspensions were snap frozen in a dry ice/ethanol bath and freeze-thawed, as previously, to lyse cells. Centrifugation at 20 000 × g for 20 min at 4 °C removed cellular debris and protein aggregates, and lysates were prepared for western blotting.

Structure (SMILES)	histone H1 displacement after R5020 ([1]; 1.5 µM)	EC50 (NUDT5 in HL-60 cells; read-out: ITDRFCETSA apparent EC50) [µM]	nuclear luminescence (nuclear ATP) after R5020 ([2]; 1.5 µM)	NUDT5 stabilization in cell lysates [3]	NUDT5 stabilization in intact cells [4]	histone H1 displacement after R5020 ([1]; 15 µM)	ITDRFCETSA dose-dependent stabilization (NUDT5 in HL-60 cells)	nuclear luminescence (nuclear ATP) after R5020 ([2]; 15 µM)
Cn1c(=O)c2c(nc(N3CCNCC3)n2Cc2nnc(-c3ccc(Cl)c(Cl)c3)o2)n(C)c1=O [TH5427]	inhibited histone H1 displacement	2.1	marked reduction in nuclear luminescence	showed the most stabilization of NUDT5 in cell lysates	stabilized NUDT5 to nearly the same levels as observed in the 37 °C DMSO control			
CCN1CCN(c2nc3c(c(=O)n(C)c(=O)n3C)n2Cc2nnc(-c3ccc(Cl)c(Cl)c3)o2)CC1 [TH5424]				showed the most stabilization of NUDT5 in cell lysates	stabilized NUDT5 to nearly the same levels as observed in the 37 °C DMSO control	moderate effects	could also dose-dependently stabilize NUDT5, however much higher concentrations were required	strong luminescence was observed
